Patent US10143704B2, “Methods for treating cancer” (Epizyme, Inc., priority 2013, dated 2018)

Experiments:
MLL-r cells = experiment: Pre-clinical study of EPZ-5676: methyl mark inhibition and cell killing; assay type: cell-based; details: pre-clinical study plots, FIGS. 3A-3D
[1] = test system: patients with MLL-r and MLL-PTD; experiment: Phase 1 dose escalation/expansion study of EPZ-5676 in leukemia patients; assay type: in vivo, human
Experimental: FIG. 1 is a summary of Phase 1 dose escalation study of EPZ-5676. […] The expansion stage of a Phase 1 study is enrolling adult patients with MLL-r and MLL-PTD who are being treated with 90 mg/m^2/day with uninterrupted administration.

Structure (SMILES): CC(C)N(C[C@H]1O[C@@H](n2cnc3c(N)ncnc32)[C@H](O)[C@@H]1O)[C@H]1C[C@@H](CCc2nc3cc(C(C)(C)C)ccc3[nH]2)C1 [Compound A2, (2R,3R,4S,5R)-2-(6-amino-9H-purin-9-yl)-5-((((1r,3S)-3-(2-(5-(tert-butyl)-1H-benzo[d]imidazol-2yl)ethyl)cyclobutyl)(isopropyl)amino)methyl)tetrahydrofuran-3,4-diol]
- effect of target methyl mark inhibition on cancer cells (MLL-r cells): selective killing of genetically defined cancer cells
- safety: drug-related treatment discontinuations ([1]; adult patients with MLL-r and MLL-PTD, 90 mg/m^2/day uninterrupted administration, expansion stage of Phase 1): no drug-related treatment discontinuations
- effect on leukemic cells in patients (micrographs) ([1]; patients with MLL-r, FIGS. 8A-8F): differentiation effect
